Assay in all cases: MIC, two-fold agar dilution, Mueller-Hinton agar
Common to all, as to format: cell-based
A general note: Agar dilution tests growth on a series of plates holding different concentrations.

Test [1] deals with Klebsiella pneumoniae 10031. The note with it: read-out: minimum inhibitory concentration (MIC). Here is the method:
(§1) The in vitro antibiotic activity is determined by a two-fold dilution test using Mueller-Hinton agar, 10 ml per Petri plate. The inoculum of approximately 1×10^5 of the indicated test organism is delivered by the Steer's replicator. The test is incubated at 37° C. for 24 hours.

The test system of test [2] is Staphylococcus aureus Smith. The note with it: read-out: minimum inhibitory concentration (MIC). Here is the method:
as §1

Test [3] deals with Pseudomonas aeruginosa BMH #10. The note with it: read-out: minimum inhibitory concentration (MIC). On the procedure: as §1
For test [4], the system named is Proteus mirabilis Fin #9. The note with it: read-out: minimum inhibitory concentration (MIC). On the procedure:
as §1

Test [5] concerns Escherichia coli 76-2. The note with it: read-out: minimum inhibitory concentration (MIC). On the procedure: as §1
In test [6] the test system is Escherichia coli JUHL. The conditions noted are these: read-out: minimum inhibitory concentration (MIC). Here is the method: as §1
Test [7] deals with Proteus vulgaris JJ. The note with it: read-out: minimum inhibitory concentration (MIC). Here is the method: as §1
Test [8] deals with Pseudomonas aeruginosa 209. The note with it: read-out: minimum inhibitory concentration (MIC). On the procedure:
as §1

The test system of test [9] is Escherichia coli BL 3676(RES). The conditions noted are these: read-out: minimum inhibitory concentration (MIC). On the procedure:
as §1

Test [10] concerns Serratia marcescens 4003. The note with it: read-out: minimum inhibitory concentration (MIC). On the procedure: as §1
The test system of test [11] is Salmonella typhimurium Ed. #9. The conditions noted are these: Salmonella enterica, read-out: minimum inhibitory concentration (MIC). On the procedure: as §1
The subject of test [12] is Pseudomonas aeruginosa KY 8512. The conditions noted are these: read-out: minimum inhibitory concentration (MIC). On the procedure:
as §1

Test [13] relates to Providencia stuartii 1577. The conditions noted are these: read-out: minimum inhibitory concentration (MIC). Here is the method:
as §1

The test system of test [14] is Enterobacter aerogenes 13048. The conditions noted are these: read-out: minimum inhibitory concentration (MIC). On the procedure: as §1
The subject of test [15] is Shigella sonnei 9290. The conditions noted are these: 37° C., 24 hours, read-out: minimum inhibitory concentration (MIC). Here is the method:
as §1

For test [16], the system named is Streptococcus faecalis 10541. The note with it: read-out: minimum inhibitory concentration (MIC). Here is the method: as §1
In test [17] the test system is Pseudomonas aeruginosa KY 8516. The note with it: read-out: minimum inhibitory concentration (MIC). On the procedure: as §1
For test [18], the system named is Klebsiella pneumoniae KY 4262. The note with it: read-out: minimum inhibitory concentration (MIC). Here is the method: as §1
The subject of test [19] is Pseudomonas aeruginosa 27853. The note with it: read-out: minimum inhibitory concentration (MIC). On the procedure: as §1
Test [20] deals with Proteus rettgeri U-6333. The note with it: Providencia rettgeri, read-out: minimum inhibitory concentration (MIC). Here is the method:
as §1

Structures are written as SMILES. Where a name gives a salt, the structure may show the parent alone. Read-outs that look alike come from different tables or passages of the source.

For `CO[C@H]1[C@@H](O)[C@@H](N)[C@@H](O[C@H]2O[C@H]([C@H](C)N)CC[C@H]2N)[C@H](O)[C@@H]1N(C)C(=O)CN` [Ex. 3, 1-Epi-fortimicin A tetrahydrochloride], the MIC in [1] (Klebsiella pneumoniae, 10031, 24 h) was determined as 3.1 mg/L; in test [2] (Staphylococcus aureus, 24 h), 1.56 mg/L; in test [3] (Pseudomonas aeruginosa, 24 h) it was 0.78 mg/L; in [4] (Proteus mirabilis, 24 h), 12.5 mg/L; in [5] (Escherichia coli, 762, 24 h) it was 6.2 mg/L; in test [6] (Escherichia coli, 24 h), 12.5 mg/L. In addition, the MIC in test [7] (Proteus vulgaris, 24 h) came to 12.5 mg/L; in [8] (Pseudomonas aeruginosa, 209, 24 h), 100 mg/L; in [9] (Escherichia coli, 24 h), 50 mg/L; in test [10] (Serratia marcescens, 4003, 24 h), 3.1 mg/L; in test [11] (TYPHIMURIUM, 24 h), 3.1 mg/L; in [12] (Pseudomonas aeruginosa, KY8512, 24 h) it was 25 mg/L. Besides, the MIC turned out to be 3.1 mg/L in [13] (Providencia stuartii, 1577, 24 h); 6.2 mg/L in [14] (Klebsiella aerogenes, 13048, 24 h); 12.5 mg/L in test [15]; 100 mg/L in [16] (Enterococcus faecalis, 10541, 24 h); 100 mg/L in test [17] (Pseudomonas aeruginosa, KY8516, 24 h); 6.2 mg/L in test [18] (Klebsiella pneumoniae, KY4262, 24 h). In addition, the MIC came to 50 mg/L in test [19] (Pseudomonas aeruginosa, 27853, 24 h) and 3.1 mg/L in [20] (U6333, 24 h).
As to `C[C@H](N)[C@@H]1CC[C@@H](N)[C@@H](O[C@@H]2[C@H](N)[C@H](O)[C@H](O)[C@@H](N(C)C(=O)CN)[C@H]2O)O1` [Ex. 13, 1-Epi-3-O-demethylfortimicin A tetrahydrochloride], the MIC in [1] (Klebsiella pneumoniae 10031, 37° C., 24 hours) was 3.1 mg/L; in test [2] (Staphylococcus aureus Smith, 37° C., 24 hours) it was 0.78 mg/L; in [3] (Pseudomonas aeruginosa BMH #10, 37° C., 24 hours), 0.78 mg/L; in test [4] (Proteus mirabilis Fin #9, 37° C., 24 hours), 6.2 mg/L; in [5] (762, Escherichia coli 76-2, 37° C., 24 hours), 3.1 mg/L; in test [6] (Escherichia coli JUHL, 37° C., 24 hours) it was 6.2 mg/L. Further, the MIC in test [7] (Proteus vulgaris JJ, 37° C., 24 hours) came to 3.1 mg/L; in test [8] (Pseudomonas aeruginosa 209, 37° C., 24 hours) it was 100 mg/L; in [9] (Escherichia coli BL 3676(RES), 37° C., 24 hours), 25 mg/L; in [10] (Serratia marcescens 4003, 37° C., 24 hours), 3.1 mg/L; in test [11] (Salmonella typhimurium Ed. #9, 37° C., 24 hours) it was 3.1 mg/L; in [12] (KY8512, Pseudomonas aeruginosa KY 8512, 37° C., 24 hours) it was 6.2 mg/L. Moreover, the MIC in test [13] (Providencia stuartii 1577, 37° C., 24 hours) was determined as 6.2 mg/L; in test [14] (Klebsiella aerogenes, Enterobacter aerogenes 13048, 37° C., 24 hours) it was 3.1 mg/L; in [15] it was 12.5 mg/L; in [16] (Enterococcus faecalis, Streptococcus faecalis 10541, 37° C., 24 hours), 50 mg/L; in test [17] (KY8516, Pseudomonas aeruginosa KY 8516, 37° C., 24 hours) it was 25 mg/L; in test [18] (KY4262, Klebsiella pneumoniae KY 4262, 37° C., 24 hours), 6.2 mg/L. The MIC is 6.2 mg/L in [19] (Pseudomonas aeruginosa 27853, 37° C., 24 hours) and 3.1 mg/L in test [20] (U6333, Proteus rettgeri U-6333, 37° C., 24 hours).

The values are drawn from US4218442A, “1-Epi-fortimicin A and derivatives” (Abbott Laboratories, priority 1979, dated 1980).
